According to US9101556B2, “Therapeutic agent and therapeutic device for alleviating ischemia-reperfusion injury” (priority 2010, dated 2015):

Tested on: myocardial ischemia-reperfusion injury
Assay: Murine myocardial ischemia-reperfusion injury model (60 min LAD ligation, then reperfusion); infarcted area by Evans blue/TTC staining
Type: in vivo, C57BL/6J male mice
Conditions: inhalation from 5 min before until 30 min after start of reperfusion; measured 24 h after reperfusion; vs control (oxygen only); t-test p<0.01
Text: 10-week old C57BL/6J male mice were used for the experiment. […] However, during this period, the animals were allowed to take ad libitum the antibiotic-containing water. […] After intraperitoneal administration of pentobarbital as an anesthetic and tracheal intubation, each animal was connected to an animal ventilator for respiration care. The left thorax was shaven and disinfected to carry out thoracotomy, and the left anterior descending coronary artery was ligated with a silk thread to maintain a state of ischemia for 60 minutes. The silk thread used for ligation was then released to cause reperfusion. Reperfusion was confirmed by the restart of blood flow. After confirming reperfusion, the thorax was closed, and ventilator care was continued until the animal awakened from anesthesia. After awakening from anesthesia, the tube was removed, and the animal received care in indoor air. […] Based on the image which was obtained, each heart section was measured for the area of the LV (left ventricle), the AAR (area at risk=the ischemic area), and the area of Nec (necrosis; the infarcted area) using ImageJ image processing software to calculate the value of AAR/LV (proportion of the ischemic area in the left ventricle) and that of Nec/AAR (proportion of the infarcted area in the ischemic area). […]

Molecule | Nec/AAR (proportion of the infarcted area in the ischemic area) compared with the control group
[HH] [hydrogen] | decreased
nitrogen monoxide | decreased
